{
  "source": "patent US20230277630A1",
  "about": "“METHODS AND COMPOSITIONS FOR TREATING AMYOTROPHIC LATERAL SCLEROSIS” (Amylyx Pharmaceuticals, Inc., priority 2022, published 2023)",
  "key": {"[1]": {"target": "T1, human liver microsomes (HLM) (Homo sapiens, UniProt P05177)", "T1 construct": "from tissue; host or cells: pooled human liver microsomes", "T1 sequence (P05177 1-516)": "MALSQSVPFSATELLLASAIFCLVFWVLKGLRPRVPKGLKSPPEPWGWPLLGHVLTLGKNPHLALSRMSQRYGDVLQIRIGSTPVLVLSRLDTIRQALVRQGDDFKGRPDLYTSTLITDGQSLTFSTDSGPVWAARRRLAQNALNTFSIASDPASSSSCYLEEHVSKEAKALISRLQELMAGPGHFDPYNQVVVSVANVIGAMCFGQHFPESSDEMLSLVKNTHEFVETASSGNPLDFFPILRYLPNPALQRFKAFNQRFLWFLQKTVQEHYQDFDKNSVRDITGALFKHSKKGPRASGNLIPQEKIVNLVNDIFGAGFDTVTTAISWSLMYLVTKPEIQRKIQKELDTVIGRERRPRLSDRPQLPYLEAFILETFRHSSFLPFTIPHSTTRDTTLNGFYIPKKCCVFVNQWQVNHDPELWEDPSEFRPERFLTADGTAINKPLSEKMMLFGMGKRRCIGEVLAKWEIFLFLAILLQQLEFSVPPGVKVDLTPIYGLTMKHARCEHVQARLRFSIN", "assay": "CYP reaction phenotyping using HLM and chemical inhibitors (% remaining)", "format": "in vitro ADME", "conditions": "human, microsomes, 5 μM, pH 7.4", "text": "(§1) % Remaining of TA=100×At/A0\n(§2) Where, At and A0 are the peak area ratio of TA to IS at time t and at time zero, respectively."}, "[2]": {"assay": "Chemical stability in HBSSg_7.4 and HBSS_8.5", "format": "physicochemical", "protocol": "The test article was prepared in DMSO stock (0.5 mM), and aliquots of the DMSO stock were added to each matrix. The nominal concentration of each component was 0.5 μM in each matrix. […] At pre-determined time points, an equal volume of acetonitrile with internal standard was added to each vial, and the mixture was placed at 4° C. until the end of the assay. The peak areas of the test article and IS of each sample were determined by LC-MS/MS, and the ratios of the peak areas (analyte: IS) were calculated."}, "[3]": {"target": "T2, human liver microsomes (HLM) (Homo sapiens, UniProt P10632)", "T2 construct": "from tissue; host or cells: pooled human liver microsomes", "T2 sequence (P10632 1-490)": "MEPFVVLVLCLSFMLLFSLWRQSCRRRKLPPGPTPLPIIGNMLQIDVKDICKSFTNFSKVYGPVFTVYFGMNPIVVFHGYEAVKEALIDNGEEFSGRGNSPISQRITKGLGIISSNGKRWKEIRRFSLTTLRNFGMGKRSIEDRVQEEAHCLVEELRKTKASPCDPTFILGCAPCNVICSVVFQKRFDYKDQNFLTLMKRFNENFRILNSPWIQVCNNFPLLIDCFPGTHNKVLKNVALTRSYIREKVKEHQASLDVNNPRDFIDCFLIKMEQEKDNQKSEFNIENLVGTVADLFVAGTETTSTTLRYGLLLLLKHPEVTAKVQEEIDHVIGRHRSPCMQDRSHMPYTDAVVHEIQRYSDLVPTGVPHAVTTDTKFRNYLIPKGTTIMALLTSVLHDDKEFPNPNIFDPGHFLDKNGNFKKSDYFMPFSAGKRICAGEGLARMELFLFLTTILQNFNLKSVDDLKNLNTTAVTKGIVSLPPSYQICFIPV", "assay": "CYP reaction phenotyping using HLM and chemical inhibitors (% remaining)", "format": "in vitro ADME", "conditions": "human, microsomes, 5 μM, pH 7.4", "text": "as §1, §2"}, "[4]": {"target": "T3, human liver microsomes (HLM) (Homo sapiens, UniProt P20813)", "T3 construct": "from tissue; host or cells: pooled human liver microsomes", "T3 sequence (P20813 1-491)": "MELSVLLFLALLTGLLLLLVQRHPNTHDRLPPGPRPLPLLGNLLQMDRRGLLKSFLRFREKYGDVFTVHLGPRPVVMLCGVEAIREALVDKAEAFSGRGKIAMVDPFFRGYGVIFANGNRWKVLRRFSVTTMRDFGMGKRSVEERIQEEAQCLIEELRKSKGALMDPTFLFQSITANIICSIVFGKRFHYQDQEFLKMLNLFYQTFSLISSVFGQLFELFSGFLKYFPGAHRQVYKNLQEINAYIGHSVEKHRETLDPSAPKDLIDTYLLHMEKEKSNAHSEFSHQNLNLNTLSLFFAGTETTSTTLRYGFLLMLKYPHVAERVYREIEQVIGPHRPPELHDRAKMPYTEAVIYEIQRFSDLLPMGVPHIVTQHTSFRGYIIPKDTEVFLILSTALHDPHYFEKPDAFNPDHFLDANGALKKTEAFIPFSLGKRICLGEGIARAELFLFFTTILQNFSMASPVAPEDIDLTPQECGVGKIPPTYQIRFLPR", "assay": "CYP reaction phenotyping using HLM and chemical inhibitors (% remaining)", "format": "in vitro ADME", "conditions": "human, microsomes, 5 μM, pH 7.4", "text": "as §1, §2"}, "P-gp and BCRP": {"tested_on": "P-gp and BCRP", "assay": "in vitro", "conditions": "human", "protocol": "The P-gp and BCRP substrate assessment was conducted in C2BBe1 cell monolayers. […] LY was co-dosed with each dosing solution at a nominal concentration of 200 μM.\nThe cell culture medium was aspirated, and the cell monolayers were rinsed once with HBSSg_7.4. […] For receiver samples, aliquots (300 μL) were taken at pre-selected time points. […] For donor samples, aliquots (50 μL) were taken at pre-selected time points without replacement."}, "[5]": {"assay": "CYP reaction phenotyping: CYP control (negative control without CYP enzymes)", "conditions": "CYP Control (without CYP enzymes) 0.1 mg protein/mL, TA 5 μM", "protocol": "The reaction was initiated by the addition of NADPH, followed by incubation at 37° C."}, "[6]": {"conditions": "Caco-2, pH 7.4, AP-to-BL Papp of TUDCA"}, "[7]": {"conditions": "Caco-2, pH 7.4, AP-to-BL Recovery of TUDCA"}, "[8]": {"conditions": "Caco-2, pH 7.4, BL-to-AP Papp of TUDCA"}, "[9]": {"conditions": "Caco-2, pH 7.4, BL-to-AP Recovery of TUDCA"}},
  "data": [
    {"smiles": "O=C(O)CCCc1ccccc1", "note": "[PB, sodium phenylbutyrate]", "values": [
      {"measurement": "% Remaining of TA (n = 3) Average", "setting": "[1]; 0 h", "value": 100, "unit": "%"},
      {"measurement": "% Remaining of TA (n = 3) Average", "setting": "[1]; 5 min", "value": 116, "unit": "%"},
      {"measurement": "% Remaining of TA (n = 3) Average", "setting": "[1]; 10 min", "value": 131, "unit": "%"},
      {"measurement": "% Remaining of TA (n = 3) Average", "setting": "[1]; 20 min", "value": 125, "unit": "%"},
      {"measurement": "% Remaining of TA (n = 3) Average", "setting": "[1]; 0.5 h", "value": 127, "unit": "%"},
      {"measurement": "% Remaining of TA (n = 3) Average", "setting": "[1]; 1 h", "value": 128, "unit": "%"},
      {"measurement": "Percent of the 0-minute value", "setting": "[2]; HBSSg_7.4, Overnight (1020-[…])", "value": 105, "unit": "%"},
      {"measurement": "Percent of the 0-minute value", "setting": "[2]; HBSSg_7.4, sampling time 0 minutes", "value": 100, "unit": "%"},
      {"measurement": "Percent of the 0-minute value", "setting": "[2]; HBSSg_7.4, sampling time 120 minutes", "value": 99.3, "unit": "%"},
      {"measurement": "chemical stability in the tested matrices", "setting": "[2]; HBSSg_7.4 and HBSS_8.5, 37° C., 0.5 μM", "value": "appeared to be stable"},
      {"measurement": "Percent of the 0-minute value", "setting": "[2]; HBSSg_8.5, Overnight (1020-[…])", "value": 98.6, "unit": "%"},
      {"measurement": "Percent of the 0-minute value", "setting": "[2]; HBSSg_8.5, sampling time 0 minutes", "value": 100, "unit": "%"},
      {"measurement": "Percent of the 0-minute value", "setting": "[2]; HBSSg_8.5, sampling time 120 minutes", "value": 79.4, "unit": "%"}
    ]},
    {"smiles": "C[C@H](CCC(=O)NCCS(=O)(=O)O)[C@H]1CC[C@H]2[C@@H]3[C@@H](O)C[C@@H]4C[C@H](O)CC[C@]4(C)[C@H]3CC[C@]12C", "note": "[TUDCA, tauroursodeoxycholic acid]", "values": [
      {"measurement": "% Remaining of TA (n = 3) Average", "setting": "[1]; 0 h", "value": 100, "unit": "%"},
      {"measurement": "% Remaining of TA (n = 3) Average", "setting": "[1]; 5 min", "value": 123, "unit": "%"},
      {"measurement": "% Remaining of TA (n = 3) Average", "setting": "[1]; 10 min", "value": 123, "unit": "%"},
      {"measurement": "% Remaining of TA (n = 3) Average", "setting": "[1]; 20 min", "value": 121, "unit": "%"},
      {"measurement": "% Remaining of TA (n = 3) Average", "setting": "[1]; 0.5 h", "value": 120, "unit": "%"},
      {"measurement": "% Remaining of TA (n = 3) Average", "setting": "[1]; 1 h", "value": 128, "unit": "%"},
      {"measurement": "% Remaining of TA (n = 3) Average", "setting": "[3]; 0 h", "value": 100, "unit": "%"},
      {"measurement": "% Remaining of TA (n = 3) Average", "setting": "[3]; 5 min", "value": 101, "unit": "%"},
      {"measurement": "% Remaining of TA (n = 3) Average", "setting": "[3]; 10 min", "value": 103, "unit": "%"},
      {"measurement": "% Remaining of TA (n = 3) Average", "setting": "[3]; 20 min", "value": 95.5, "unit": "%"},
      {"measurement": "% Remaining of TA (n = 3) Average", "setting": "[3]; 0.5 h", "value": 105, "unit": "%"},
      {"measurement": "% Remaining of TA (n = 3) Average", "setting": "[3]; 1 h", "value": 97.7, "unit": "%"},
      {"measurement": "% Remaining of TA (n = 3) Average", "setting": "[4]; 0 h", "value": 100, "unit": "%"},
      {"measurement": "% Remaining of TA (n = 3) Average", "setting": "[4]; 5 min", "value": 112, "unit": "%"},
      {"measurement": "% Remaining of TA (n = 3) Average", "setting": "[4]; 10 min", "value": 112, "unit": "%"},
      {"measurement": "% Remaining of TA (n = 3) Average", "setting": "[4]; 20 min", "value": 122, "unit": "%"},
      {"measurement": "% Remaining of TA (n = 3) Average", "setting": "[4]; 0.5 h", "value": 116, "unit": "%"},
      {"measurement": "% Remaining of TA (n = 3) Average", "setting": "[4]; 1 h", "value": 102, "unit": "%"},
      {"measurement": "Papp A→B at 1.62 µM", "setting": "P-gp and BCRP; [6]", "value": 9.59, "unit": "×10⁻⁶ cm/s"},
      {"measurement": "Papp A→B at 81 µM", "setting": "P-gp and BCRP; [6]", "value": 5.84, "unit": "×10⁻⁶ cm/s"},
      {"measurement": "Papp A→B at […]", "setting": "P-gp and BCRP; [6]", "value": 7.47, "unit": "×10⁻⁶ cm/s"},
      {"measurement": "recovery at 1.62 μM", "setting": "P-gp and BCRP; [7]", "value": 78.5, "unit": "%"},
      {"measurement": "recovery at 16.2 μM", "setting": "P-gp and BCRP; [7]", "value": 71.6, "unit": "%"},
      {"measurement": "recovery at 81 μM", "setting": "P-gp and BCRP; [7]", "value": 101, "unit": "%"},
      {"measurement": "Papp B→A at 1.62 µM", "setting": "P-gp and BCRP; [8]", "value": 1.75, "unit": "×10⁻⁶ cm/s"},
      {"measurement": "Papp B→A at 16.2 µM", "setting": "P-gp and BCRP; [8]", "value": 0.553, "unit": "×10⁻⁶ cm/s"},
      {"measurement": "Papp B→A at 81 µM", "setting": "P-gp and BCRP; [8]", "value": 2.66, "unit": "×10⁻⁶ cm/s"},
      {"measurement": "Papp B→A at […]", "setting": "P-gp and BCRP; [8]", "value": 1.94, "unit": "×10⁻⁶ cm/s"},
      {"measurement": "recovery at 1.62 μM", "setting": "P-gp and BCRP; [9]", "value": 79.5, "unit": "%"},
      {"measurement": "recovery at 16.2 μM", "setting": "P-gp and BCRP; [9]", "value": 76.1, "unit": "%"},
      {"measurement": "recovery at 81 μM", "setting": "P-gp and BCRP; [9]", "value": 101, "unit": "%"},
      {"measurement": "% Remaining of TA", "setting": "[5]; 0 min", "value": 100, "unit": "%"},
      {"measurement": "% Remaining of TA", "setting": "[5]; 5 min", "value": 99.4, "unit": "%"},
      {"measurement": "% Remaining of TA", "setting": "[5]; 10 min", "value": 97.9, "unit": "%"},
      {"measurement": "% Remaining of TA", "setting": "[5]; 20 min", "value": 95.9, "unit": "%"},
      {"measurement": "% Remaining of TA", "setting": "[5]; 30 min", "value": 93.7, "unit": "%"}
    ]}
  ]
}
